Assay results published in patent publication US20190314256A1, “COSMETIC BASE INCLUDING AMIDE ALCOHOL ESTER, AND COSMETIC” (Kokyu Alcohol Kogyo Co., Ltd., priority 2016, published 2019).

Legend:
Assay type in all cases: physicochemical
[1] = Pigment dispersibility (wet point WP and flow point FP); conditions: titanium oxide, zinc oxide, iron oxide
Source text: 1. Weigh 1.5 g of a pigment in mortar. 2. Gradually add an oil dropwise and knead with a pestle. 3. Check the weight of the oil at each point of WP and FP. 4. Calculate WP and FP per 100 g of the pigment. WP: Wet point (the lower the wet point, the better the wettability of the pigment.) FP: Flow point (the lower the flow point, the better the dispersibility of the pigment.)

[2] = Viscosity
[3] = Solubility and gelling ability with each liquid; critical gelation concentration by sample tube inversion method; conditions: physical form of the ester
[4] = as above; set-up: key: S: Soluble; I: Insoluble/separation; G: Gel; T: Thickening; EG: Emulsion gel
Method: The amide alcohol or ester of amide alcohol was heated and mixed with each liquid, and the critical gelation concentration was measured by sample tube inversion method.
Sample tube used: used tube: Maruemu screw tube No. 7 (trunk diameter 35 mm total length 78 mm)

With “N-2 ethylhexylbutyramide 4-isostearic acid ester [EHBA-IS]” the pigment dispersibility [1] was “excellent pigment dispersibility” and the viscosity [2] was “approximately 270 mPa·s”.
For `CCCCCCCCCCCC(=O)OCCCC(=O)NCC(CC)CCCC` (centres unmarked) [EHBA-L, N-2 ethylhexylbutyramide-4-lauric acid ester], the Property [3] was “Solid”, the “solubility and gelling ability” value ([4]; Ethanol) was “S” and the “solubility and gelling ability” value ([4]; Glycerin) was “I”. For the same compound, the “solubility and gelling ability” value ([4]; Octyldodecanol) was “S”, the “solubility and gelling ability” value ([4]; Octyldodecyl myristate) was “S” and the “solubility and gelling ability” value ([4]; Squalane) was “I”. The “solubility and gelling ability” value ([4]; Triethylhexanoin) was “I” and the “solubility and gelling ability” value ([4]; Water) was “I”.
For “N-cyclohexylbutyramide-4-isostearic acid ester [CHBA-IS]”, the pigment dispersibility [1] was “excellent pigment dispersibility” and the viscosity [2] was “approximately 230 mPa·s”.
In the case of `CCCCCCCCCCCC(=O)OCCCC(=O)NCCCCCCCC` [OBA-L, N-octylbutyramide-4-lauric acid ester], the Property [3] is reported as “Solid”, the “solubility and gelling ability” value ([4]; Ethanol) is reported as “S” and the “solubility and gelling ability” value ([4]; Glycerin) is reported as “I”. The “solubility and gelling ability” value ([4]; Octyldodecanol) was “G”, the “solubility and gelling ability” value ([4]; Octyldodecyl myristate) was “G” and the “solubility and gelling ability” value ([4]; Squalane) was “G”. For the same compound, the “solubility and gelling ability” value ([4]; Triethylhexanoin) was “G” and the “solubility and gelling ability” value ([4]; Water) was “I”.
In the case of `CCCCCCCCCCCCCC(=O)OCCCC(=O)NCCCCCCCCCCCC` [LBA-M, N-laurylbutyramide-4-myristic acid ester], the Property [3] is reported as “Solid”, the “solubility and gelling ability” value ([4]; Ethanol) is reported as “G” and the “solubility and gelling ability” value ([4]; Glycerin) is reported as “I”. The “solubility and gelling ability” value ([4]; Octyldodecanol) was “G”, the “solubility and gelling ability” value ([4]; Octyldodecyl myristate) was “G” and the “solubility and gelling ability” value ([4]; Squalane) was “G”. For the same compound, the “solubility and gelling ability” value ([4]; Triethylhexanoin) was “G” and the “solubility and gelling ability” value ([4]; Water) was “I”.
With `CCCCCCCCCCCCNC(=O)CCCOC(=O)CCCCCCCCCCC` [LBA-L, N-laurylbutyramide-4-lauric acid ester] the Property [3] was “Solid”, the “solubility and gelling ability” value ([4]; Ethanol) was “G” and the “solubility and gelling ability” value ([4]; Glycerin) was “I”. For the same compound, the “solubility and gelling ability” value ([4]; Octyldodecanol) was “G”, the “solubility and gelling ability” value ([4]; Octyldodecyl myristate) was “G” and the “solubility and gelling ability” value ([4]; Squalane) was “G”. For the same compound, the “solubility and gelling ability” value ([4]; Triethylhexanoin) was “G” and the “solubility and gelling ability” value ([4]; Water) was “I”.
For `CCCCCCCCCCCC(=O)OCCCC(=O)NC1CCCCC1` [CHBA-L, N-cyclohexylbutyramide-4-lauric acid ester], the Property [3] was “Solid”, the “solubility and gelling ability” value ([4]; Ethanol) was “S” and the “solubility and gelling ability” value ([4]; Glycerin) was “I”. For the same compound, the “solubility and gelling ability” value ([4]; Octyldodecanol) was “G”, the “solubility and gelling ability” value ([4]; Octyldodecyl myristate) was “G” and the “solubility and gelling ability” value ([4]; Squalane) was “G”. The “solubility and gelling ability” value ([4]; Triethylhexanoin) was “G” and the “solubility and gelling ability” value ([4]; Water) was “I”.
